Laboratory results reported in patent US5922680A, “Stabilized composition for oral administration of peptides” (Ferring, B.V., priority 1997, dated 1999).

Details: pH 6.5
Experimental: Human gastro-intestinal juice was obtained from healthy male volunteers who had been fasting for 8 h. A tube was introduced intranasally after local anaesthesia with xylocaine, and gastric juice was collected. Thereafter one standardized meal was given 1 h before sampling of duodenal and distal jejunum juice and another the next morning before the collection of distal ileal juice. After centrifugation the gastric and intestinal juices were frozen in aliquots of 1 ml and stored at -20° C. […] The peptide or peptide analog (10 μl of 10 mM peptide in 0.9% aqueous NaCl) was added to 190 μl of undiluted juice at 37° C. Aliquots of 25 μl were withdrawn at intervals and mixed with 100 μl acetone to stop the reaction. After centrifugation for 10 min at 10,000 g, 10 μl of the supernatant was analyzed by reversed phase HPLC. […] Analysis was carried out in a Varian 5000 HPLC analyzer equipped with a UV-detector (220 nm). Column Bondapak TM C18 (3.9×300 mm), eluant MeOH/0.025 M NH4 Ac (isocratic conditions), flow rate 1 ml/min. […] Protein: Bio-Rad protein assay. pH: Orion model SA720; pH-paper Merck (Darmstadt), range 4.0-7.0.

DDAVP degraded (to about 50%): about 50%
Structure (SMILES): NC(=O)CC[C@@H]1NC(=O)[C@H](Cc2ccccc2)NC(=O)[C@H](Cc2ccc(O)cc2)NC(=O)CCSSC[C@@H](C(=O)N2CCC[C@H]2C(=O)N[C@H](CCCN=C(N)N)C(=O)NCC(N)=O)NC(=O)[C@H](CC(N)=O)NC1=O [DDAVP, Mpa-Tyr-Phe-Gln-Asn-Cys-Pro-D-Arg-Gly-GlyNH2]
